Assays:
[1] = system: EREG expression in PBMC; assay: EREG expression in PBMC by real time polymerase chain reaction (RT-PCR); format: cell-based, Human; conditions: 10 μM drug
Experimental: Exposure of PBMCs to P979 and Rolipram: Human peripheral blood leukocytes were obtained from normal blood donors by density gradient separation, washed with PBS (phosphate buffered saline), and plated on petri dishes using RPMI medium. […] After 2 hours, cells were harvested and RNA was prepared.
Real Time Polymerase Chain Reaction (RT-PCR): To confirm the data obtained from microarray, we performed RT-PCR using specific primers for epiregulin gene.
EREG expression in PBMCs after exposure to anti-inflammatory agent was confirmed by real time polymerase chain reaction (RT-PCR). Microarray based gene expression profiling studied large-scale gene expression. RT PCR focused on the gene/genes of interest and expression analysis was carried out under similar experimental conditions.
The aliquot of RNA samples as used for microarray study was used for RT-PCR analysis. The experiment was carried out using cMaster™ RTplusPCR System kit from Eppendorf using the protocol as provided in the kit. Briefly, cDNA was synthesized using RNA from various sources as shown in the results and subsequently quantified during amplification step by incorporation of Syber green dye into the amplicons.

[2] = system: EREG expression in PBMCs; assay: EREG expression in PBMCs after exposure to anti-inflammatory agent, microarray based expression profiling; format: cell-based, Human
Experimental: Exposure of PBMCs to P979 and Rolipram: Human peripheral blood leukocytes were obtained from normal blood donors by density gradient separation, washed with PBS (phosphate buffered saline), and plated on petri dishes using RPMI medium. Cells were treated for 30 minutes with test compounds at concentrations 0.3, 1.0 and 3.0 μM and with Rolipram at 300 μM as a control as shown in the results section and subsequently activated with bacterial lipopolysaccharide (LPS). After 2 hours, cells were harvested and RNA was prepared.
Preparation of RNA: RNA was prepared by adding 1 ml of trizol reagent (Sigma) subsequently purified using Qiagen-RNAEasy kit, using the instruction from manufacturer's protocol. Quality and quantity of RNA was measured by spectrometry and gel electrophoresis.
Gene expression profiling by microarray: A total of 10 μg of RNA was used to generate cRNA, which is subsequently labeled with Cy3 or Cy5 fluorescent dyes. Control and test cRNAs labeled with Cy3 and Cy5 respectively were pooled and hybridized to DNA chip. […] Following image analysis, image intensity for each of the 23, 290 spots were measured for test and control slides.
Gene expression was expressed as a ratio of the image intensity between test and control slide for a given gene (Table 3). […]

COc1ccc(C2CNC(=O)C2)cc1OC1CCCC1 (stereo not drawn) [Rolipram] was tested, and the “Log-fold Change (EREG expression)” value [1] was 1.2, the “Ratio intensity (EREG expression, test vs control slide)” value ([2]; 300 μM drug, 30 minutes, then LPS activation, harvested after 2 hours) was 1.03 and the “expression of epiregulin gene up-regulated (in words)” value ([2]; microarray) was “not”.
